Measurements as given in US20220324909A1, “THERAPEUTIC PEPTIDES” (COHBAR, INC., priority 2019, published 2022).
Non-standard residues stand in square brackets, D forms with d. No end group written: not given here.

What was measured:
C2C12 cells [1] = assay: Caspase 3/7 activity in C2C12 cells; format: cell-based, mouse; settings: peptide 10 μM, 24 hours, relative to 0.1% DMSO control
Method: The effect of the peptides on cell death/survival can be assessed using a caspase-3/7 assay in cultured cells such as mouse myoblast cells. Peptides were initially prepared as 10 mM stock in DMSO, diluted to 1 mM in H2O, and used at a final concentration of 10 μM (0.1% DMSO). […] Staurosporine (Abcam, Cambridge, Mass.) was dissolved at 10 mM in DMSO as a stock solution. Caspase-Glo 3/7 Assay Reagent was purchased from Promega (Madison, Wis.). C2C12 cell line was purchased from American Type Culture Collection (Manassas, Va.). C2C12 cells were grown in DMEM supplemented with 20% FBS with 100 IU/ml penicillin and 100 μg/ml streptomycin. […] C2C12 cells were seeded at 4,000 cells per well on 96-well plates. […] Caspase 3/7 activity was determined using a Caspase-Glo 3/7 Assay kit according to the manufacturer's instructions. Luminescence for each sample well on the plate was measured using a Cytation 3 plate reader (BioTek, Winooski, Vt.). Activity was calculated relative to 0.1% DMSO control.

3T3-L1 mouse adipocytes [2] = assay: Free fatty acid levels in 3T3-L1 mouse adipocytes (Example 12, 10 μM); format: cell-based; settings: peptide 10 μM, 20-22 h then 3 h with isoproterenol 1 nM
Method: The effect of the peptides on fatty acid metabolism can be assessed using an assay of free fatty acid levels in cultured cells such as mouse adipocytes. Peptides were initially prepared as 10 mM stock in DMSO, diluted to 1 mM in H2O, and used at a final concentration of 10 μM (0.1% DMSO). […] Insulin at 100 nM was added to control wells.

C2C12 cells [3] = assay: Glucose utilization in cultured C2C12 cells and insulin dependence; format: cell-based, mouse; settings: 22 h; for Glucose Utilization, Percent of Control Activity No Insulin: peptide 10 μM alone, glucose in medium relative to untreated cells; for Glucose Utilization, Percent of Control Activity With Insulin: peptide 10 μM with 5-20 nM insulin, glucose in medium relative to insulin treated cells
Excerpt: The effect of the peptides on glucose homeostasis can be assessed using an assay to monitor glucose utilization by cultured cells such as mouse myotubes. […] C2C12 mouse muscle cell line was purchased from Millipore Sigma (Saint Louis, Mo.). […] Three days after plating the medium was removed and with Differentiation Medium (DMEM/low glucose (1 g/L)+2% Horse Serum+antibiotics) added. […] After 5 days of differentiation, the medium was removed from myotube cultures and replaced with Assay Medium (DMEM/low glucose (1 g/L)+antibiotics). […] Following the 5 h incubation the medium was removed and fresh Assay Medium containing compounds added; 10 μM peptide in absence or presence of 5-20 nM insulin, or 1 mM metformin as a potent stimulator of glucose utilization. […] Following 22 h incubation, conditioned medium from each well was transferred to a fresh 96-well plate. Glucose concentrations in the medium were determined using a Glucose Assay kit (Abcam; Cambridge, Mass.) according to the manufacturer's instructions; absorbance measured using a Cytation 3 plate reader at 570 nm (BioTek, Winooski, Vt.). Absorbance values were expressed as percent control activity relative to untreated treated cells (no insulin) for 10 μM peptide alone or 5-20 nM insulin treated cells (with insulin) for 10 μM peptide in presence of 5-20 nM insulin. Untreated cells were used as reference for basal glucose utilization. The relative standard deviation from plate to plate of untreated control was <10%. Metformin at 1 mM was used as a potent control for increasing glucose utilization. Glucose levels for metformin (1 mM) treatment were <10% of the untreated control value. Data are presented as averages values from 2-3 independent experiments with each data point performed in triplicate.

H4-IIE cells = assay: Glucose production in cultured H4-IIE cells and insulin dependence; format: cell-based, rat; settings: 24 h; for Glucose Production, Percent of Control Activity No Insulin: peptide 10 μM alone, relative to untreated cells; for Glucose Production, Percent of Control Activity With Insulin: peptide 10 μM with 800 μM insulin, relative to insulin treated cells
Outline: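 Rat hepatoma cells incubated 24 h with peptides; glucose released into conditioned medium measured colorimetrically at 570 nm. Untreated cells serve as maximal-production reference, with insulin at […] as a modest inhibitor. Values are means of 2-4 independent experiments run in triplicate.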

3T3-L1 mouse adipocytes [4] = assay: Free fatty acid levels in cultured 3T3-L1 mouse adipocytes and insulin dependence (Example 17); format: cell-based; settings: isoproterenol 0.1 nM; for Free Fatty Acid Levels, Percent of Isoproterenol Control Activity No Insulin: peptide 10 μM alone, relative to isoproterenol treated cells; for Free Fatty Acid Levels, Percent of Isoproterenol Control Activity With Insulin: peptide 10 μM with 0.25 nM insulin, relative to 0.25 nM insulin treated cells
C2C12 cells [5] = assay: Cell proliferation in C2C12 cells (Cyquant DNA dye binding); format: cell-based, mouse; settings: peptide 10 μM, 72 hours with readdition every 24 hours, relative to 0.1% DMSO control
Method: The effect of the peptides on cell proliferation was assessed using a DNA dye binding assay in cultured cells such as mouse myoblast cells. Peptides were initially prepared as 10 mM stock in DMSO, diluted to 1 mM in H2O, and added at a final concentration of 10 μM (0.1% DMSO). Lovastatin was used as a growth arrest control at final concentration of 10 μM. […] C2C12 cells were grown in DMEM supplemented with 20% FBS with 100 IU/ml penicillin and 100 μg/ml streptomycin. […] C2C12 cells were seeded at 800 cells per well on 96-well plates. […] Cell proliferation was determined using Cyquant Direct Nucleic Acid Stain (Thermo Fisher Scientific, Waltham, Mass.) according to the manufacturer's instructions. Fluorescence for each sample well on the plate was measured using a Cytation 3 plate reader at Ex/Em=495/535 nm (BioTek, Winooski, Vt.). Activity was calculated relative to 0.1% DMSO untreated control. The relative standard deviation for the lovastatin control was <27%. The cell proliferation for the lovastatin control was <25% of the value for untreated control.

## 8 (RRMMGMVFQCLCG[dA]; cysteine pairing not given here) [compound 8]
C2C12 cells [1]
  Caspase 3/7 Activity, Percent of Control Activity: 97.6%
3T3-L1 mouse adipocytes [2]
  Free Fatty Acid Levels, Percent of Isoproterenol Control Activity: 34.7%
C2C12 cells [3]
  Glucose Utilization, Percent of Control Activity No Insulin: 90.8%
  Glucose Utilization, Percent of Control Activity With Insulin: 85.5%
H4-IIE cells
  Glucose Production, Percent of Control Activity No Insulin: 78.9%
  Glucose Production, Percent of Control Activity With Insulin: 102.8%
3T3-L1 mouse adipocytes [4]
  Free Fatty Acid Levels, Percent of Isoproterenol Control Activity No Insulin: 106%
  Free Fatty Acid Levels, Percent of Isoproterenol Control Activity With Insulin: 57.8%
C2C12 cells [5]
  Cell Proliferation, Percent of Control: 98.1%

## 10 (RRMMGMVYQCLCG[dA]; cysteine pairing not given here) [compound 10]
C2C12 cells [1]
  Caspase 3/7 Activity, Percent of Control Activity: 96.6%
3T3-L1 mouse adipocytes [2]
  Free Fatty Acid Levels, Percent of Isoproterenol Control Activity: 24.9%
C2C12 cells [3]
  Glucose Utilization, Percent of Control Activity No Insulin: 102.6%
  Glucose Utilization, Percent of Control Activity With Insulin: 76.3%
H4-IIE cells
  Glucose Production, Percent of Control Activity No Insulin: 92.2%
  Glucose Production, Percent of Control Activity With Insulin: 38.2%
3T3-L1 mouse adipocytes [4]
  Free Fatty Acid Levels, Percent of Isoproterenol Control Activity No Insulin: 97.9%
  Free Fatty Acid Levels, Percent of Isoproterenol Control Activity With Insulin: 48.7%
C2C12 cells [5]
  Cell Proliferation, Percent of Control: 101.5%

## 11 (RRMMGMVAQCLCGA) [compound 11]
C2C12 cells [1]
  Caspase 3/7 Activity, Percent of Control Activity: 99.1%
3T3-L1 mouse adipocytes [2]
  Free Fatty Acid Levels, Percent of Isoproterenol Control Activity: 59.2%
C2C12 cells [3]
  Glucose Utilization, Percent of Control Activity No Insulin: 107.2%
  Glucose Utilization, Percent of Control Activity With Insulin: 84.5%
H4-IIE cells
  Glucose Production, Percent of Control Activity No Insulin: 96.6%
  Glucose Production, Percent of Control Activity With Insulin: 57.5%
3T3-L1 mouse adipocytes [4]
  Free Fatty Acid Levels, Percent of Isoproterenol Control Activity No Insulin: 104%
  Free Fatty Acid Levels, Percent of Isoproterenol Control Activity With Insulin: 58.5%
C2C12 cells [5]
  Cell Proliferation, Percent of Control: 88.1%

## 12 (RRMMGMVEQCLCG[dA]; cysteine pairing not given here) [compound 12]
C2C12 cells [1]
  Caspase 3/7 Activity, Percent of Control Activity: 105.1%
3T3-L1 mouse adipocytes [2]
  Free Fatty Acid Levels, Percent of Isoproterenol Control Activity: 51.3%
C2C12 cells [3]
  Glucose Utilization, Percent of Control Activity No Insulin: 102.3%
  Glucose Utilization, Percent of Control Activity With Insulin: 84.5%
H4-IIE cells
  Glucose Production, Percent of Control Activity No Insulin: 96.4%
  Glucose Production, Percent of Control Activity With Insulin: 44.8%
3T3-L1 mouse adipocytes [4]
  Free Fatty Acid Levels, Percent of Isoproterenol Control Activity No Insulin: 103%
  Free Fatty Acid Levels, Percent of Isoproterenol Control Activity With Insulin: 54.6%
C2C12 cells [5]
  Cell Proliferation, Percent of Control: 119.3%

## 13 (RRMMGMVFQELCG[dA]) [compound 13]
C2C12 cells [1]
  Caspase 3/7 Activity, Percent of Control Activity: 99.0%
3T3-L1 mouse adipocytes [2]
  Free Fatty Acid Levels, Percent of Isoproterenol Control Activity: 66.0%
C2C12 cells [3]
  Glucose Utilization, Percent of Control Activity No Insulin: 104.4%
  Glucose Utilization, Percent of Control Activity With Insulin: 97.8%
H4-IIE cells
  Glucose Production, Percent of Control Activity No Insulin: 100.9%
  Glucose Production, Percent of Control Activity With Insulin: 68%
3T3-L1 mouse adipocytes [4]
  Free Fatty Acid Levels, Percent of Isoproterenol Control Activity No Insulin: 105%
  Free Fatty Acid Levels, Percent of Isoproterenol Control Activity With Insulin: 56.4%
C2C12 cells [5]
  Cell Proliferation, Percent of Control: 90.0%

## 14 (RRMMGMVFQCLEG[dA]) [compound 14]
C2C12 cells [1]
  Caspase 3/7 Activity, Percent of Control Activity: 100.1%
3T3-L1 mouse adipocytes [2]
  Free Fatty Acid Levels, Percent of Isoproterenol Control Activity: 46.5%
C2C12 cells [3]
  Glucose Utilization, Percent of Control Activity No Insulin: 102.4%
  Glucose Utilization, Percent of Control Activity With Insulin: 112.3%
H4-IIE cells
  Glucose Production, Percent of Control Activity No Insulin: 104.4%
  Glucose Production, Percent of Control Activity With Insulin: 159.6%
3T3-L1 mouse adipocytes [4]
  Free Fatty Acid Levels, Percent of Isoproterenol Control Activity No Insulin: 100%
  Free Fatty Acid Levels, Percent of Isoproterenol Control Activity With Insulin: 51.0%
C2C12 cells [5]
  Cell Proliferation, Percent of Control: 97.2%

## 16 (RRMMGMVFQCLSG[dA]) [compound 16]
C2C12 cells [1]
  Caspase 3/7 Activity, Percent of Control Activity: 93.1%
3T3-L1 mouse adipocytes [2]
  Free Fatty Acid Levels, Percent of Isoproterenol Control Activity: 58.8%
C2C12 cells [3]
  Glucose Utilization, Percent of Control Activity No Insulin: 99.7%
  Glucose Utilization, Percent of Control Activity With Insulin: 88.4%
H4-IIE cells
  Glucose Production, Percent of Control Activity No Insulin: 99.8%
  Glucose Production, Percent of Control Activity With Insulin: 56.8%
3T3-L1 mouse adipocytes [4]
  Free Fatty Acid Levels, Percent of Isoproterenol Control Activity No Insulin: 110%
  Free Fatty Acid Levels, Percent of Isoproterenol Control Activity With Insulin: 63.0%
C2C12 cells [5]
  Cell Proliferation, Percent of Control: 89.6%

## 17 (RRMMGMVFQSLSG[dA]) [compound 17]
C2C12 cells [1]
  Caspase 3/7 Activity, Percent of Control Activity: 92.0%
3T3-L1 mouse adipocytes [2]
  Free Fatty Acid Levels, Percent of Isoproterenol Control Activity: 77.9%
C2C12 cells [3]
  Glucose Utilization, Percent of Control Activity No Insulin: 102.6%
  Glucose Utilization, Percent of Control Activity With Insulin: 96.2%
H4-IIE cells
  Glucose Production, Percent of Control Activity No Insulin: 101.7%
  Glucose Production, Percent of Control Activity With Insulin: 95.5%
3T3-L1 mouse adipocytes [4]
  Free Fatty Acid Levels, Percent of Isoproterenol Control Activity No Insulin: 98.4%
  Free Fatty Acid Levels, Percent of Isoproterenol Control Activity With Insulin: 87.7%
C2C12 cells [5]
  Cell Proliferation, Percent of Control: 89.1%

## 18 (RRXXGXVFQCLCGA; (3)..(3) Xaa is Norleucine; (4)..(4) Xaa is Norleucine; (6)..(6) Xaa is Norleucine; (14)..(14) D-Ala) [compound 18]
C2C12 cells [1]
  Caspase 3/7 Activity, Percent of Control Activity: 93.8%
3T3-L1 mouse adipocytes [2]
  Free Fatty Acid Levels, Percent of Isoproterenol Control Activity: 77.3%
C2C12 cells [3]
  Glucose Utilization, Percent of Control Activity No Insulin: 103.6%
  Glucose Utilization, Percent of Control Activity With Insulin: 122.1%
H4-IIE cells
  Glucose Production, Percent of Control Activity No Insulin: 103.1%
  Glucose Production, Percent of Control Activity With Insulin: 140.4%
3T3-L1 mouse adipocytes [4]
  Free Fatty Acid Levels, Percent of Isoproterenol Control Activity No Insulin: 110%
  Free Fatty Acid Levels, Percent of Isoproterenol Control Activity With Insulin: 81.1%
C2C12 cells [5]
  Cell Proliferation, Percent of Control: 74.9%
